Consider 36 molecules from patent publication US4654362A, “Derivatives of 2,2'-iminobisethanol” (Janssen Pharmaceutica, N.V., priority 1984, dated 1987).

The target in one assay is T1, guinea pig trachea (β2) (Cavia porcellus, UniProt Q8K4Z4).
T1 construct: The trachea was dissected from guinea-pigs; from tissue; host or cells: guinea-pig tracheal rings (tracheal smooth muscle)
Nature of the assay: Guinea-pig tracheal ring test: inhibition of isoprenaline-induced relaxation (β2-adrenergic receptor blocking activity, in vitro). The conditions noted are these: for β2 /β1: ratio of ED50 trachea (β2) to ED50 right atrium (β1), index of cardioselectivity; for IC50: tracheal ring, methacholine 1 μg/ml, isoprenaline 0.08 μg/ml, 30 min, 35° C., probit analysis, read-out: ED50 value on guinea pig trachea (β2) (converted). The text has this: 2. Guinea-pig tracheal ring (β2)
The trachea was dissected from guinea-pigs (400±50 g). Four rings, approximately 8 mm. in width, were then cut from each trachea. Cartilaginous parts of the tracheal ring were mounted horizontally between two metal rods, one of which was attached to a glass organholder, the other rod being connected to a Grass isometric transducer. Using such a technique the tracheal smooth muscle is suspended optimally i.e. midway between the cartilaginous parts. […] The preparation was maintained at tension of 1.5 g throughout the experiment. Tension changes recorded were thus an expression of contraction or relaxation. After a stabilisation period of 30 min. contraction was induced by adding methacholine (1 μg/ml) to the bath for a 10 min. period. […] This procedure was repeated twice before adding the drug (t-33'; t-19') and once 30 min. after addition of the drug. During the incubation period any direct effects of the drug were measured.
The ratio of the ED50 -values obtained in respectively the tracheal ring test (β2) and in the right atrium test (β1) may be considered as an index of the cardioselectivity of the test drug.

The target in the next assay is T2, guinea pig atrium (β1) (Cavia porcellus, UniProt H0W3H1).
T2 construct: Spontaneously beating right atria were dissected from guinea-pigs; from tissue; host or cells: guinea-pig right atrium (strip including the sinoatrial node)
T2 sequence (H0W3H1 1-470): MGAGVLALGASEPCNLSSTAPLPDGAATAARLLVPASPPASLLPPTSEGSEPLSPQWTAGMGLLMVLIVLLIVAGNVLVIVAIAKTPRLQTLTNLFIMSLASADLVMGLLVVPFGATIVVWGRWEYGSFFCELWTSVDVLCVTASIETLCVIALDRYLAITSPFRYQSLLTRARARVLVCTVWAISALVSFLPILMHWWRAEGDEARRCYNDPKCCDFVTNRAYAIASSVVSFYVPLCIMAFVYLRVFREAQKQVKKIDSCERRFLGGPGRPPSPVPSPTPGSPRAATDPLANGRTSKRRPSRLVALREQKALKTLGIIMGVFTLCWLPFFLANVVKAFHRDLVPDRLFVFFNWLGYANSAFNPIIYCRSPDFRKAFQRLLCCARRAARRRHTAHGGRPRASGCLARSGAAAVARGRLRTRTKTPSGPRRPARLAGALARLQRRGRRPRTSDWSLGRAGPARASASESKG
Nature of the assay: Guinea-pig right atrium test: inhibition of isoprenaline-induced increase in heart rate (β1-adrenergic receptor blocking activity, in vitro). The conditions noted are these: isolated right atrium, 30 min incubation, 37.5° C., estimated graphically, read-out: ED50 value on guinea pig atrium (β1) (converted). Here is the method: 1. Guinea-pig right atrium (β1)
Spontaneously beating right atria were dissected from guinea-pigs (400±50 g). A triangular strip of atrium, including the sinoatrial node was excised together with the anterior vena cava.
The vena was fixed to a glass muscle holder and the opposite atrial muscle was connected to a Grass isometric transducer. […] Heart rate and contractile force were recorded by means of a Grass FT03C isometric transducer. Output signals amplified by an isometric transducer amplifier (J.S.I.) via a cardiotachometer (J.S.I.) were recorded on Honeywell XYY' recorder.
After washing out isoprenaline a stabilisation period of 15 min. was allowed. A drug was then added to the bath fluid for 30 min. During this incubation period possible direct chronotropic and inotropic effects of the drug were determined. Following this, a second dose-response curve for isoprenaline was produced by infusion during 10 minutes (b). The slope of the increase in rate was graphically estimated for each period of isoprenaline addition and the ratio b/a was calculated. Based on solvent experiments a ratio of less than 0.70 was considered as the criterion of inhibitory activity. ED50 -values were estimated graphically.

T1 sequence (Q8K4Z4 whole entry): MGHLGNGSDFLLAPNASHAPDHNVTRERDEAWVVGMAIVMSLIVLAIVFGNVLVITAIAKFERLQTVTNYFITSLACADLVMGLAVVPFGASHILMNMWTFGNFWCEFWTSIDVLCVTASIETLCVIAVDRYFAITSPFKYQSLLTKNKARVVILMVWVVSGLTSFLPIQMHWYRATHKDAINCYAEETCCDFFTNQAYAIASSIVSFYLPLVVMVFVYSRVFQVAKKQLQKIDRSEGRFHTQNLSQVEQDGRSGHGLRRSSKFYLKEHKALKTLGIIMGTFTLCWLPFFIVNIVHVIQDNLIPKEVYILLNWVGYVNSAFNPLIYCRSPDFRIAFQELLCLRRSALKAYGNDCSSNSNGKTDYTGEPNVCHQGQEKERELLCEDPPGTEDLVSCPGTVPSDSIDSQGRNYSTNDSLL

On to `Cc1ccc2c(c1)OC(C(O)CNCC(O)C1CCc3ccccc3O1)CC2` (stereo not drawn) [Compound 99], for which, at guinea pig trachea (β2), the “β2 /β1” value is listed as ≥ 15,873 and the IC50 was no less than 26100 nM. Also, at guinea pig atrium (β1), the IC50 was 1.64 nM.
As for `OC(CNCC(O)C1CCc2cc(Br)ccc2O1)C1CCc2ccccc2O1` (stereo not drawn) [Compound 63], on guinea pig atrium (β1), the IC50 is less than 89.2 nM.
With `OC(CNCC(O)C1CCc2ccccc2O1)C1CCc2ccccc2O1` (stereo not drawn) [Compound 83], the “β2 /β1” value at guinea pig trachea (β2) is listed as > 5,435. For the same molecule, the IC50 on guinea pig atrium (β1) is 1.25 nM.
For `OC(CNCC(O)C1CCc2cc(F)ccc2O1)C1CCc2ccccc2O1` (stereo not drawn) [Compound 91], on guinea pig trachea (β2), the “β2 /β1” value is recorded as 6,250 and the IC50 is 12900 nM. Also, the IC50 on guinea pig atrium (β1) is 2.06 nM.
In the case of `Cc1ccc2c(c1)CCC(C(O)CNCC(O)C1CCc3ccccc3O1)O2` (stereo not drawn) [Compound 89], at guinea pig trachea (β2), the “β2 /β1” value is listed as 20,698 and the IC50 is 23200 nM. The IC50 at guinea pig atrium (β1) was 1.12 nM.
`OC(CNCC(O)C1CCc2ccccc2O1)C1CCc2ccccc2O1` (stereo not drawn) [Compound 88]: the IC50 on guinea pig trachea (β2) was no less than 27100 nM.
Turning to `Cc1cc(C)c2c(c1)OC(C(O)CNCC(O)C1CCc3ccccc3O1)CC2` (stereo not drawn) [Compound 106], the “β2 /β1” value on guinea pig trachea (β2) was greater than 1000.
Consider `CC(O)(CNCC(O)C1CCc2ccccc2O1)C1CCc2ccccc2O1` (stereo not drawn) [Compound 92], for which, at guinea pig trachea (β2), the “β2 /β1” value is recorded as 12,500. Besides, the IC50 is 13000 nM at guinea pig trachea (β2) and 1.04 nM at guinea pig atrium (β1).
As to `CC(=O)Nc1ccc2c(c1)CCC(C(O)CNCC(O)C1CCc3ccccc3O1)O2` (stereo not drawn) [Compound 94], the IC50 on guinea pig atrium (β1) was no less than 5.86 nM.
`OC(CNCC(O)C1CCc2ccccc2O1)C1CCc2ccccc2O1` (stereo not drawn) [Compound 81]: at guinea pig trachea (β2), the “β2 /β1” value was 3,938 and the IC50 was 1710 nM. Besides, at guinea pig atrium (β1), the IC50 is 0.433 nM.
For the molecule `Cc1ccc2c(c1)CCC(C(O)CNCC(O)C1CCc3cc(C)ccc3O1)O2` (stereo not drawn) [Compound 113], the IC50 on guinea pig atrium (β1) was 6.29 nM.
With `CC(=O)Nc1ccc2c(c1)CCC(C(O)CNCC(O)C1CCc3ccccc3O1)O2` (stereo not drawn) [Compound 95], on guinea pig trachea (β2), the “β2 /β1” value is reported as 129 and the IC50 was 93.8 nM. Besides, the IC50 on guinea pig atrium (β1) was 0.727 nM.
Take `OC(CNCC(O)C1CCc2ccccc2O1)C1CCc2ccccc2O1` (stereo not drawn) [Compound 77]: on guinea pig trachea (β2), the “β2 /β1” value is recorded as 4,074. Moreover, at guinea pig atrium (β1), the IC50 was 1.46 nM.
For `Oc1ccc2c(c1)CCC(C(O)CNCC(O)C1CCc3ccccc3O1)O2` (stereo not drawn) [Compound 130], the “β2 /β1” value on guinea pig trachea (β2) was found to be 1000. Besides, the IC50 was 804 nM at guinea pig trachea (β2) and 0.804 nM at guinea pig atrium (β1).
As for `Cc1ccc2c(c1)OC(C(O)CNCC(O)C1CCc3ccccc3O1)CC2` (stereo not drawn) [Compound 97], the “β2 /β1” value on guinea pig trachea (β2) is recorded as 7,042. The IC50 on guinea pig trachea (β2) was 13000 nM; at guinea pig atrium (β1), 1.85 nM.
Turning to `OC(CNCC(O)C1CCc2ccccc2O1)C1CCc2ccccc2O1` (stereo not drawn) [Compound 138, (A,A)-α-[[[2-(3,4-dihydro-2H-1-benzopyran-2-yl)-2-hydroxyethyl]amino]methyl]-3,4-dihydro-2H-1-benzopyran-2-methanol ethanedioate (1:1)], on guinea pig trachea (β2), the “β2 /β1” value was greater than 1000 and the IC50 is greater than 27100 nM. Moreover, the IC50 on guinea pig atrium (β1) is 27.1 nM.
With `OC(CNCC(O)C1CCc2ccccc2O1)C1CCc2ccccc2O1` (stereo not drawn) [Compound 75], at guinea pig trachea (β2), the “β2 /β1” value is reported as 2,154 and the IC50 is 7580 nM. In addition, the IC50 at guinea pig atrium (β1) is 3.52 nM.
Consider `OC(CNCC(O)C1CCc2cc(Br)ccc2O1)C1CCc2cc(Br)ccc2O1` (stereo not drawn) [Compound 10, (B,B)-α,α'-[iminobismethylene]bis[6-bromo-3,4-dihydro-2H-1-benzopyran-2-methanol]], for which the IC50 at guinea pig atrium (β1) was 75.9 nM.
`Oc1ccc2c(c1)CCC(C(O)CNCC(O)C1CCc3cc(O)ccc3O1)O2` (stereo not drawn) [Compound 133]: the IC50 on guinea pig atrium (β1) is 1.57 nM.
For `CC(O)(CNCC(C)(O)C1CCc2ccccc2O1)C1CCc2ccccc2O1` (stereo not drawn) [Compound 86], at guinea pig trachea (β2), the “β2 /β1” value is 4,166 and the IC50 is 12600 nM. Also, the IC50 on guinea pig atrium (β1) was 3.02 nM.
On to `OC(CNCC(O)C1CCc2ccccc2O1)C1CCc2ccccc2O1` (stereo not drawn) [Compound 76], for which, on guinea pig trachea (β2), the “β2 /β1” value is 2,614 and the IC50 is 5950 nM. The IC50 on guinea pig atrium (β1) was 2.3 nM.
`Cc1ccc2c(c1)OC(C(O)CNCC(O)C1CCc3ccccc3O1)CC2` (stereo not drawn) [Compound 98]: on guinea pig trachea (β2), the “β2 /β1” value is given as 2,400 and the IC50 was 15600 nM. Besides, on guinea pig atrium (β1), the IC50 is 6.52 nM.
In the case of `OC(CNCC(O)C1CCc2ccc3c(c2O1)CCCC3)C1CCc2ccccc2O1` (stereo not drawn) [Compound 110], the IC50 at guinea pig atrium (β1) is 5.9 nM.
For `Cc1ccc2c(c1)CCC(C(O)CNCC(O)C1CCc3cc(C)ccc3O1)O2` (stereo not drawn) [Compound 85], the “β2 /β1” value on guinea pig trachea (β2) is on record as 5,652. In addition, the IC50 at guinea pig trachea (β2) is 3270 nM; on guinea pig atrium (β1), 0.579 nM.
For the molecule `OC(CNCC(O)C1CCc2ccccc2O1)C1CCc2ccccc2O1` (stereo not drawn) [Compound 79], the “β2 /β1” value at guinea pig trachea (β2) is 13,157. Moreover, the IC50 at guinea pig trachea (β2) is 6770 nM; at guinea pig atrium (β1), 0.514 nM.
Take `OC(CNCC(O)C1CCc2cc(F)ccc2O1)C1CCc2cc(F)ccc2O1` (stereo not drawn) [Compound 84]: at guinea pig trachea (β2), the IC50 is greater than 24700 nM.
Regarding `Cc1ccc2c(c1)CCC(C(O)CNCC(O)C1CCc3ccccc3O1)O2` (stereo not drawn) [Compound 93], the “β2 /β1” value at guinea pig trachea (β2) is 13,750. Besides, the IC50 on guinea pig trachea (β2) was 5740 nM; at guinea pig atrium (β1), 0.417 nM.
On to `CC(=O)Nc1ccc2c(c1)CCC(C(O)CNCC(O)C1CCc3ccccc3O1)O2` (stereo not drawn) [Compound 96], for which, on guinea pig trachea (β2), the “β2 /β1” value is reported as 108 and the IC50 was 328 nM. Moreover, the IC50 at guinea pig atrium (β1) was 3.05 nM.
The like results for `N#Cc1ccc2c(c1)CCC(C(O)CNCC(O)C1CCc3ccccc3O1)O2` (stereo not drawn) [Compound 51] were, in that order, greater than 252, greater than 1600 nM and 6.34 nM.
`Cc1ccc2c(c1)CCC(C(O)CNCC(O)C1CCc3ccccc3O1)O2` (stereo not drawn) [Compound 90]: the “β2 /β1” value on guinea pig trachea (β2) is ≥ 25,000. The IC50 on guinea pig trachea (β2) was no less than 26100 nM; on guinea pig atrium (β1), 1.04 nM.
As for `OC(CNCC(O)C1CCc2ccccc2O1)C1CCc2ccccc2O1` (stereo not drawn) [Compound 82], on guinea pig trachea (β2), the “β2 /β1” value was > 1,000 and the IC50 was greater than 6770 nM. Moreover, the IC50 at guinea pig atrium (β1) was 6.77 nM.
Regarding `CS(=O)(=O)Nc1ccc2c(c1)CCC(C(O)CNCC(O)C1CCc3ccccc3O1)O2` (stereo not drawn) [Compound 135], the IC50 on guinea pig atrium (β1) is 136 nM.
Turning to `OC(CNCC(O)C1CCc2ccccc2O1)C1CCc2ccccc2O1` (stereo not drawn) [Compound 74, (A^+ A^+)-α,α'-[iminobis(methylene)]bis[3,4-dihydro-2H-1-benzopyran-2-methanol]], at guinea pig trachea (β2), the “β2 /β1” value is listed as 12,500 and the IC50 was 8120 nM. Besides, the IC50 on guinea pig atrium (β1) was 0.65 nM.
Regarding `CC1(C(O)CNCC(O)C2CCc3ccccc3O2)CCc2ccccc2O1` (stereo not drawn) [Compound 140, (A,B)-α-[[[2-(3,4-dihydro-2H-1-benzopyran-2-yl)-2-hydroxyethyl]amino]methyl]-3,4-dihydro-2-methyl-2H-1-benzopyran-2-methanol ethanedioate (1:1). monohydrate], the IC50 on guinea pig atrium (β1) is no more than 6.52 nM.
Regarding `Cc1cc(C)c2c(c1)OC(C(O)CNCC(O)C1CCc3ccccc3O1)CC2` (stereo not drawn) [Compound 104], at guinea pig trachea (β2), the “β2 /β1” value is greater than 1923 and the IC50 is greater than 6290 nM. On guinea pig atrium (β1), the IC50 is 3.27 nM.
For `Cc1cc(C)c2c(c1)OC(C(O)CNCC(O)C1CCc3ccccc3O1)CC2` (stereo not drawn) [Compound 103], on guinea pig trachea (β2), the “β2 /β1” value was greater than 4000 and the IC50 is greater than 25200 nM. In addition, on guinea pig atrium (β1), the IC50 was 6.29 nM.
